Test results published in patent publication US11479551B2, “MTA-cooperative PRMT5 inhibitors” (Mirati Therapeutics, Inc., priority 2019, dated 2022).
pIC50: −log10 of the molar value.

What was measured:
[1] = system: HCT116 homozygous MTAP knockout cells; test: Proliferation assay (CellTiter-Glo, 10 days of treatment), HCT116 MTAP knockout; assay type: cell-based; settings: Homo sapiens, HCT-116, 240 h, read-out: Proliferation HCT116MTAP_KO IC50
Description: (§1) 1. HCT116 MTAP Knockout Model
(§2) HCT116 cells were genetically engineered to knock out the function of both MTAP alleles using a CRISPR/Cas9 system and an sgRNA targeting the MTAP gene. Following Cas9/MTAP sgRNA transduction, clones were screened to confirm that each allele of the MTAP gene had been inactivated (i.e., homozygous MTAP knock out) creating an MTAP-deficient cell.
(§3) Control samples were analyzed in parallel.
Briefly, on Day 0, 250 HCT116 parental or HCT116 homozygous MTAP knockout cell were seeded in 96 well plates in McCoy's 5A supplemented with 10% fetal bovine serum and pen/strep and the cells were incubated overnight at 37° C. plus 5% CO2.
The following day, cells were treated with DMSO vehicle control or a dose response of PRMT5 inhibitors and incubated at 37 C plus 5% CO2 for five days. On Day 6, the cells were trypsinized and split 1:10 into new 96-well plates with fresh medium containing the same concentration of PRMT5 inhibitor and incubated for an additional 5 days at 37° C. plus 5% CO^2.
On Day 11, the viability of the cells was measured using a CTG assay kit (CellTiter-Glo; Promega cat.no G7573) in accordance with the manufacturer's instructions. The IC50 values for each compound after 10 days of treatment were calculated using GraphPad PRISM software.

[2] = system: PRMT5-dependent Symmetric Di-methyl Arginine signal in HCT116 homozygous MTAP knockout cells; test: SYM11 In-Cell Western, HCT116 MTAP knockout; assay type: cell-based; settings: Homo sapiens, HCT-116, 96 h, HCT116 homozygous MTAP knockout cells, 4 days of treatment, SYM11/DRAQ5 ratio; read-out: In-cell-Western (SYM11) HCT116 MTAP_KO IC50
Description: as §1, §2, §3
Briefly, on Day 0, 2,000 HCT116 parental or HCT116 homozygous MTAP knockout cells were seeded in 96 well plates in McCoy's 5A supplemented with 10% fetal bovine serum and pen/strep and the cells were incubated overnight at 37° C. plus 5% CO2. The following day, cells were treated with DMSO vehicle control or a dose response of PRMT5 inhibitors, and incubated at 37° C. plus 5% CO^2 for four days.
After 4 days of treatment, the cells were fixed by adding 50 μl of 4% paraformaldehyde solution to each well and the cells were incubated for 20 min at room temperature. The paraformaldehyde solution was removed, 150 μl of ice-cold methanol was added and the plate was placed −20° C. for 10 minutes. The methanol was removed, 150 μl of Odyssey Blocking buffer+0.05% Tween20 was added and the plate was incubated at room temperature with shaking for one hour.
The primary SYM11 antibody solution was removed by aspiration and the wells were washed three consecutive times with phosphate buffered saline containing 0.1% Tween-20 (PBST).
The secondary antibody solution was removed by aspiration and the wells were washed three consecutive times with PB ST.
The SYM11 signal and the DRAQ5 signal were quantified using a Li-Cor Odyssey machine reading at […], respectively. The SYM11/DRAQ5 ratio was used to calculate the inhibition of Symmetric Dimethyl Arginine as percent of DMSO control.

pIC50 [1]	pIC50 [2]	Compound
6.87	6.85	Cn1ncc(-c2ccc3c(=O)[nH]nc(CN)c3c2)c1-c1cc2ccccc2c(Cl)c1C#N [Example 4-218, 3-(4-(4-(aminomethyl)-1-oxo-1,2-dihydrophthalazin-6-yl)-1-methyl-1H-pyrazol-5-yl)-1-chloro-2-naphthonitrile]
5.44	< 6.00	Cn1nc(Cl)c(-c2c(-c3ccc4c(=O)[nH]nc(CN)c4c3)cnn2C)c1C#N [Example 4-219, 4-(4-(aminomethyl)-1-oxo-1,2-dihydrophthalazin-6-yl)-3′-chloro-1′,2-dimethyl-1′H,2H-[3,4′-bipyrazole]-5′-carbonitrile]
6.72	8.00	Cn1ncc(-c2ccc3c(=O)[nH]nc(CN)c3c2)c1-c1ccc2c(c1C#N)OCCC2 [Example 4-226, 7-(4-(4-(aminomethyl)-1-oxo-1,2-dihydrophthalazin-6-yl)-1-methyl-1H-pyrazol-5-yl)chromane-8-carbonitrile]
5.63	< 6.00	Cn1ncc(-c2ccc3c(=O)[nH]nc(CN)c3c2)c1-c1cc2ccccn2c1C#N [Example 4-227, 2-(4-(4-(aminomethyl)-1-oxo-1,2-dihydrophthalazin-6-yl)-1-methyl-1H-pyrazol-5-yl)indolizine-3-carbonitrile]
< 5.00	< 6.00	N#Cc1c(-c2sncc2-c2ccc3c(=O)[nH]nc(CN)c3c2)ccc2ccccc12 [Example 4-228, 2-(4-(4-(aminomethyl)-1-oxo-1,2-dihydrophthalazin-6-yl)isothiazol-5-yl)-1-naphthonitrile]
5.32	6.83	Cn1ncc(-c2ccc3c(=O)[nH]nc(CN)c3c2)c1-c1cn(Cc2ccccc2C#N)nc1Cl [Example 4-232, 2-((4-(4-(aminomethyl)-1-oxo-1,2-dihydrophthalazin-6-yl)-3′-chloro-2-methyl-1′H,2H-[3,4′-bipyrazol]-1′-yl)methyl)benzonitrile]
5.33	< 6.00	Cn1ncc(-c2ccc3c(=O)[nH]nc(CN)c3c2)c1-c1cccc2cncn12 [Example 4-233, 4-(aminomethyl)-6-(5-(imidazo[1,5-a]pyridin-5-yl)-1-methyl-1H-pyrazol-4-yl)phthalazin-1(2H)-one]
6.69	6.89	Cn1ncc(-c2ccc3c(=O)[nH]nc(CN)c3c2)c1-c1ccc2cccc(F)c2c1C#N [Example 4-234, 2-(4-(4-(aminomethyl)-1-oxo-1,2-dihydrophthalazin-6-yl)-1-methyl-1H-pyrazol-5-yl)-8-fluoro-1-naphthonitrile]
< 5.00	< 6.00	N#CCc1ccccc1Oc1cncc(-c2ccc3c(=O)[nH]nc(CN)c3c2)c1 [Example 4-235, 2-(2-((5-(4-(aminomethyl)-1-oxo-1,2-dihydrophthalazin-6-yl)pyridin-3-yl)oxy)phenyl)acetonitrile]
< 6.00	< 6.00	Cn1ncc(-c2ccc3c(=O)[nH]nc(CN)c3c2)c1-c1cnn(Cc2cccn(C)c2=O)c1Cl [Example 4-236, 4-(aminomethyl)-6-(5′-chloro-2-methyl-1′-((1-methyl-2-oxo-1,2-dihydropyridin-3-yl)methyl)-1′H,2H-[3,4′-bipyrazol]-4-yl)phthalazin-1(2H)-one]
5.98	6.87	Cn1ncc(-c2ccc3c(=O)[nH]nc(CN)c3c2)c1-c1ccc2ncsc2c1C#N [Example 4-237, 6-(4-(4-(aminomethyl)-1-oxo-1,2-dihydrophthalazin-6-yl)-1-methyl-1H-pyrazol-5-yl)benzo[d]thiazole-7-carbonitrile]
< 5.00	< 6.00	Cn1ncc(-c2ccc3c(=O)[nH]nc(CN)c3c2)c1-c1cccn2cncc12 [Example 4-239, 4-(aminomethyl)-6-(5-(imidazo[1,5-a]pyridin-8-yl)-1-methyl-1H-pyrazol-4-yl)phthalazin-1(2H)-one]
5.45	< 6.00	Cn1ncc(-c2ccc3c(=O)[nH]nc(CN)c3c2)c1-c1cn2ccccc2c1C#N [Example 4-240, 2-(4-(4-(aminomethyl)-1-oxo-1,2-dihydrophthalazin-6-yl)-1-methyl-1H-pyrazol-5-yl)indolizine-1-cathonitrile]
6.55	7.29	Cn1ncc(-c2ccc3c(=O)[nH]nc(CN)c3c2)c1-c1cc(Cl)cc(OC(F)F)c1C#N [Example 4-243, 2-(4-(4-(aminomethyl)-1-oxo-1,2-dihydrophthalazin-6-yl)-1-methyl-1H-pyrazol-5-yl)-4-chloro-6-(difluoromethoxy)benzonitrile]
6.49	7.38	Cn1ncc(-c2ccc3c(=O)[nH]nc(CN)c3c2)c1-c1sc2ncccc2c1C#N [Example 4-244, 2-(4-(4-(aminomethyl)-1-oxo-1,2-dihydrophthalazin-6-yl)-1-methyl-1H-pyrazol-5-yl)thieno[2,3-b]pyridine-3-carbonitrile]
8.10	8.15	Cc1c(F)c(-c2c(-c3ccc4c(=O)[nH]nc(CN)c4c3)cnn2C)c(C#N)c2ccccc12 [Example 4-245, 2-(4-(4-(aminomethyl)-1-oxo-1,2-dihydrophthalazin-6-yl)-1-methyl-1H-pyrazol-5-yl)-3-fluoro-4-methyl-1-naphthonitrile]
7.14	7.30	Cn1ncc(-c2ccc3c(=O)[nH]nc(CN)c3c2)c1-c1c(C(F)F)cc2ccccc2c1C#N [Example 4-246, 2-(4-(4-(aminomethyl)-1-oxo-1,2-dihydrophthalazin-6-yl)-1-methyl-1H-pyrazol-5-yl)-3-(difluoromethyl)-1-naphthonitrile]
5.74	< 6.00	Cn1nc(F)c(-c2ccc3c(=O)[nH]nc(CN)c3c2)c1-c1ccc2ccccc2c1C#N [Example 4-247, 2-(4-(4-(aminomethyl)-1-oxo-1,2-dihydrophthalazin-6-yl)-3-fluoro-1-methyl-1H-pyrazol-5-yl)-1-naphthonitrile]
5.94	< 6.00	Cn1cc2c(C#N)c(-c3c(-c4ccc5c(=O)[nH]nc(CN)c5c4)cnn3C)ccc2n1 [Example 4-248, 5-(4-(4-(aminomethyl)-1-oxo-1,2-dihydrophthalazin-6-yl)-1-methyl-1H-pyrazol-5-yl)-2-methyl-2H-indazole-4-carbonitrile]
5.45	< 6.00	Cn1ncc(-c2ccc3c(=O)[nH]nc(CN)c3c2)c1-c1ccc2c(cnn2C)c1C#N [Example 4-249, 5-(4-(4-(aminomethyl)-1-oxo-1,2-dihydrophthalazin-6-yl)-1-methyl-1H-pyrazol-5-yl)-1-methyl-1H-indazole-4-carbonitrile]
6.12	7.29	Cn1ncc(-c2ccc3c(=O)[nH]nc(CN)c3c2)c1-c1ccc2nscc2c1C#N [Example 4-250, 5-(4-(4-(aminomethyl)-1-oxo-1,2-dihydrophthalazin-6-yl)-1-methyl-1H-pyrazol-5-yl)benzo[c]isothiazole-4-carbonitrile]
7.31	8.10	Cn1ncc(-c2ccc3c(=O)[nH]nc(CN)c3c2)c1-c1c(F)ccc(OC2CC2)c1C#N [Example 4-251, 2-(4-(4-(aminomethyl)-1-oxo-1,2-dihydrophthalazin-6-yl)-1-methyl-1H-pyrazol-5-yl)-6-cyclopropoxy-3-fluorobenzonitrile]
7.06	8.40	Cn1ncc(-c2ccc3c(=O)[nH]nc(CN)c3c2)c1-c1cc(OC(F)(F)F)cc(OC2CC2)c1C#N [Example 4-252, 2-(4-(4-(aminomethyl)-1-oxo-1,2-dihydrophthalazin-6-yl)-1-methyl-1H-pyrazol-5-yl)-6-cyclopropoxy-4-(trifluoromethoxy)benzonitrile]
< 5.00	< 6.00	Cn1ncc(-c2ccc3c(=O)[nH]nc([C@H](N)C(F)F)c3c2)c1-c1ccc2ccccc2c1C#N [Example 9-6, 2-[4-[4-[(1S)-1-amino-2,2-difluoro-ethyl]-1-oxo-2H-phthalazin-6-yl]-2-methyl-pyrazol-3-yl]naphthalene-1-carbonitrile]
